In US7223788B2, “Substituted N-aryl heterocycles, process for their preparation and their use as medicaments” (Sanofi-Aventis Deutschland GmbH, priority 2003, dated 2007):

Tested on: female NMRI mice
Experiment: Anorectic effect: reduction in cumulative milk consumption after oral administration (gavage) to fasted mice
Format: in vivo
Conditions: oral dose 30 mg/kg by gavage, after withdrawal of food for 17 hours, condensed milk consumption over 7 hours, compared with vehicle-treated control
Method: The anorectic effect was tested on female NMRI mice. After withdrawal of food for 17 hours, the test product was administered by gavage. The animals were housed singly with free access to drinking water and were offered condensed milk 30 minutes after administration of the product. The condensed milk consumption was determined every half hour for 7 hours, and the general wellbeing of the animals was observed. The measured milk consumption was compared with the vehicle-treated control animals.

## CC(=O)N(C)C1CCN(c2ccc(NC(=O)N3CCC(c4ccc(Cl)cc4)CC3)cc2)C1 (centres unmarked) [Example 13, 4-(4-Chlorophenyl)piperidine-1-carboxylic acid {4-[3-(acetylmethylamino)-pyrrolidin-1-yl]phenyl}amide]
  Reduction in the cumulative milk consumption as % of the control: 64%

## CC(=O)N(C)[C@@H]1CCN(c2ccc(NC(=O)Nc3ccc(Oc4ccccc4)cc3)cc2)C1 [Example 4, (R)-N-Methyl-N-(1-{4-[3-(4-phenoxyphenyl)ureido]phenyl}pyrrolidin-3-yl)acetamide]
  Reduction in the cumulative milk consumption as % of the control: 50%
